# Test results taken from patent US10501421B1, “Substituted benzimidazoles as modulators of Ras signaling” (VANDERBILT UNIVERSITY, priority 2017, dated 2019).
# Where a name gives a salt, the structure may show the parent alone.
# Molecular target: Ras GEF SOS (Son of Sevenless) (Homo sapiens, UniProt Q07889)
# Assay: SOS-mediated nucleotide exchange on Ras (BODIPY-GDP fluorescence)
# Format: biochemical
# Settings: SOS-mediated exchange of BODIPY-GDP for GTP on Ras
# Method: Compounds of the present invention were tested for their ability to modify the rate at which Ras exchanges a labeled nucleotide guanosine diphosphate (GDP) analog for guanosine triphosphate (GTP). Briefly, test compounds, then GTP and the Ras GEF SOS (Son of Sevenless) are added to a buffered solution containing Ras protein loaded with BODIPY-GDP. Changes in fluoresence indicating exchange of the labeled GDP for GTP are monitored over time. Raw fluorescence data was fit to a single exponential decay function and derived rates were plotted as mean values. EC50 values were calculated by plotting mean derived rates as a function of compound concentration and fit using a four-parameter dose-response curve. This assay is performed in a method analogous to the assay disclosed in: Burns, M. C.; Sun, Q.; Daniels, R. N.; Camper, D. V.; Kennedy, J. P.; Phan, J.; Olejniczak, E. O.; Lee, T.; Waterson, A. G.; Rossanese, O. W.; Fesik, S. W. “Approach for targeting Ras with small molecules that activate SOS-mediated nucleotide exchange” Proc. Natl. Acad. Sci. 2014; 11(9): 3401-3406. PMCID: PMC3948241.
# Ras GEF SOS (Son of Sevenless), sequence (Q07889 564-1049 limits assumed): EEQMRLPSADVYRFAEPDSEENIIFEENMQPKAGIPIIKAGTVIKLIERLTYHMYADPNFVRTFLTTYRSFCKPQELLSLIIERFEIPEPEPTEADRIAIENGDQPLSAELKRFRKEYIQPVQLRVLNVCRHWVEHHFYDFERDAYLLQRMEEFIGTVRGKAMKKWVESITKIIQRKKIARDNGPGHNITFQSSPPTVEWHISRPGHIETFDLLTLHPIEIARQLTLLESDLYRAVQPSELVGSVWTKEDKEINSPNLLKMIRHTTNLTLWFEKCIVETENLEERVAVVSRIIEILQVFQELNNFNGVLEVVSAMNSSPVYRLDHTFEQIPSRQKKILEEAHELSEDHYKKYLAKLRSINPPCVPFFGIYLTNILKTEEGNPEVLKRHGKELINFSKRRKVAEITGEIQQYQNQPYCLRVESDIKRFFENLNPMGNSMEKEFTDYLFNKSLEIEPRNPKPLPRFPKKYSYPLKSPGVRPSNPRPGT
# Ras GEF SOS (Son of Sevenless), sequence (P01112 1-166 partner limits assumed): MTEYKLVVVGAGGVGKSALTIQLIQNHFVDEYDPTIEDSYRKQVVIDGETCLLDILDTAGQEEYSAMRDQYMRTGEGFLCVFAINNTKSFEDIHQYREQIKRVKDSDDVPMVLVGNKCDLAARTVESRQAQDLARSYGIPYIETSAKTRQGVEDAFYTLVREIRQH
row,Compound,EC50
1,"Cc1cnc2nc(N3CCNCC3)n(Cc3ccc(F)c(C)c3)c2c1 [Example 244, 1-(4-fluoro-3-methylbenzyl)-6-methyl-2-(piperazin-1-yl)-1H-imidazo[4,5-b]pyridine]",5 to 30 µM
2,"Cc1cnc2ncn(Cc3ccc(F)c(Cl)c3)c2c1 [Example 243, 1-(3-chloro-4-fluorobenzyl)-6-methyl-1H-imidazo[4,5-b]pyridine]",30 to 100 µM
3,"Fc1cc(F)cc(Cn2c(N3CCNCC3)nc3ccccc32)c1 [Example 14, 1-(3,5-difluorobenzyl)-2-(piperazin-1-yl)-1H-benzo[d]imidazole trifluoroacetate]",5 to 30 µM
4,"Nc1nc2ccccc2n1Cc1ccc(F)cc1 [Example 1, 1-(4-fluorobenzyl)-1H-benzo[d]imidazol-2-amine]",30 to 100 µM
5,"Cc1cc(Cn2c(NC3CCNC3)nc3c(-c4ccccc4)nccc32)ccc1F (stereo not shown) [Example 222, 1-(4-fluoro-3-methylbenzyl)-4-phenyl-N-(pyrrolidin-3-yl)-1H-imidazo[4,5-c]pyridin-2-amine]",5 to 30 µM
6,"Cc1cc(Cn2c(NCCN)nc3c(-c4ccccc4)nccc32)ccc1F [Example 221, N^1-(1-(4-fluoro-3-methylbenzyl)-4-phenyl-1H-imidazo[4,5-c]pyridin-2-yl)ethane-1,2-diamine]",30 to 100 µM
7,"NCCNc1nc2ccccc2n1Cc1cc(F)cc(F)c1 [Example 15, N^1-(1-(3,5-difluorobenzyl)-1H-benzo[d]imidazol-2-yl)ethane-1,2-diamine trifluoroacetate]",5 to 30 µM
8,"Clc1ccc(Cn2c(Cl)nc3ncccc32)cc1 [Example 254, 2-chloro-1-(4-chlorobenzyl)-1H-imidazo[4,5-b]pyridine]",30 to 100 µM
9,"Fc1ccc(Cn2c(N3CCNCC3)nc3ccc(C(F)(F)F)cc32)cc1Cl [Example 71, 1-(3-chloro-4-fluorobenzyl)-2-(piperazin-1-yl)-6-(trifluoromethyl)-1H-benzo[d]imidazole trifluoroacetate]",1 to 5 µM
10,"Cc1cc2nc(C3CCNCC3)n(Cc3ccc(F)c(Cl)c3)c2cc1C [Example 59, 1-(3-chloro-4-fluorobenzyl)-5,6-dimethyl-2-(piperidin-4-yl)-1H-benzo[d]imidazazole trifluoroacetate]",5 to 30 µM
11,"Cc1cc(Cn2c(N3CCNCC3)nc3c(-c4ccccc4)nccc32)ccc1F [Example 220, 1-(4-fluoro-3-methylbenzyl)-4-phenyl-2-(piperazin-1-yl)-1H-imidazo[4,5-c]pyridine]",5 to 30 µM
12,"Cc1cc2nc(N3CCC(N)C3)n(Cc3ccc(F)c(Cl)c3)c2cc1C (stereo not shown) [Example 289, 1-(1-(3-chloro-4-fluorobenzyl)-5,6-dimethyl-1H-benzo[d]imidazol-2-yl)pyrrolidin-3-amine]",1 to 5 µM
13,"Clc1ccc(Cn2cnc3ncccc32)cc1 [Example 255, 1-(4-chlorobenzyl)-1H-imidazo[4,5-b]pyridine]",30 to 100 µM
14,"Cc1cc2nc(-c3ccncc3)n(Cc3cc(F)cc(F)c3)c2cc1C [Example 53, 1-(3,5-difluorobenzyl)-5,6-dimethyl-2-(pyridin-4-yl)-1H-benzo[d]imidazole]",30 to 100 µM
15,"Cc1cc2nc(N)n(Cc3cc(F)cc(F)c3)c2cc1C [Example 6, 1-(3,5-difluorobenzyl)-5,6-dimethyl-1H-benzo[d]imidazol-2-amine]",30 to 100 µM
16,"Fc1ccc(Cn2cnc3ncccc32)cc1 [Example 253, 1-(4-fluorobenzyl)-1H-imidazo[4,5-b]pyridine]",30 to 100 µM
17,"COc1ccccc1C#Cc1ccccc1-c1cc(Cl)cc2c1nc(N1CCNCC1)n2Cc1cc(C)c(F)c(C)c1 [Example 186, 6-chloro-1-(4-fluoro-3,5-dimethylbenzyl)-4-(2-((2-methoxyphenyl)ethynyl)phenyl)-2-(piperazin-1-yl)-1H-benzo[d]imidazole trifluoroacetate]",5 to 30 µM
18,"C=Cc1nc(C)cc2c1nc(N1CCNCC1)n2Cc1ccc(F)c(C)c1 [Example 239, 1-(4-fluoro-3-methylbenzyl)-6-methyl-2-(piperazin-1-yl)-4-vinyl-1H-imidazo[4,5-c]pyridine]",30 to 100 µM
19,"Cc1ccc2nc(NCCN)n(Cc3ccc(F)c(Cl)c3)c2c1 [Example 60, N^1-(1-(3-chloro-4-fluorobenzyl)-6-methyl-1H-benzo[d]imidazol-2-yl)ethane-1,2-diamine trifluoroacetate]",1 to 5 µM
20,"Fc1ccc(Cn2c(C3CCNCC3)nc3ccccc32)cc1Cl [Example 55, 1-(3-chloro-4-fluorobenzyl)-2-(piperidin-4-yl)-1H-benzo[d]imidazole trifluoroacetate]",5 to 30 µM

row,Compound,EC50
1,"Cc1cc2nc(NCCO)n(Cc3ccc(F)cc3)c2cc1C [Example 23, 2-((1-(4-fluorobenzyl)-5,6-dimethyl-1H-benzo[d]imidazol-2-yl)amino)ethan-1-ol]",30 to 100 µM
2,"Cc1cc2nc(-c3ccncc3)n(Cc3ccc(F)c(Cl)c3)c2cc1C [Example 54, 1-(3-chloro-4-fluorobenzyl)-5,6-dimethyl-2-(pyridin-4-yl)-1H-benzo[d]imidazole]",30 to 100 µM
3,"Cc1cc2nc(N3CCN(C)CC3)n(Cc3ccc(F)c(Cl)c3)c2cc1C [Example 27, 1-(3-chloro-4-fluorobenzyl)-5,6-dimethyl-2-(4-methylpiperazin-1-yl)-1H-benzo[d]imidazole trifluoroacetate]",30 to 100 µM
4,"Cc1ccc2c(n1)nc(N1CCNCC1)n2Cc1ccc(F)c(Cl)c1 [Example 256, 1-(3-chloro-4-fluorobenzyl)-5-methyl-2-(piperazin-1-yl)-1H-imidazo[4,5-b]pyridine]",5 to 30 µM
5,"COc1ccc(-c2cccc3c2nc(N2CCNCC2)n3Cc2ccc(F)c(Cl)c2)cc1OC [Example 88, 1-(3-chloro-4-fluorobenzyl)-4-(3,4-dimethoxyphenyl)-2-(piperazin-1-yl)-1H-benzo[d]imidazole]",1 to 5 µM
6,"Cc1ccc2nc([C@@H](N)C(C)C)n(Cc3cccc(Cl)c3)c2c1 [Example 270, (S)-1-(1-(3-chlorobenzyl)-6-methyl-1H-benzo[d]imidazol-2-yl)-2-methylpropan-1-amine]",30 to 100 µM
7,"Fc1cc(F)cc(Cn2c(N3CCOCC3)nc3ccccc32)c1 [Example 13, 4-(1-(3,5-difluorobenzyl)-1H-benzo[d]imidazol-2-yl)morpholine]",30 to 100 µM
8,"Cc1cc2c(nc(N3CCNCC3)n2Cc2ccc(F)c(C)c2)c(CN2CCC(O)CC2)n1 [Example 238, 1-((1-(4-fluoro-3-methylbenzyl)-6-methyl-2-(piperazin-1-yl)-1H-imidazo[4,5-c]pyridin-4-yl)methyl)piperidin-4-ol]",30 to 100 µM
9,"Nc1nc2ccccc2n1Cc1ccc(F)c(Cl)c1 [Example 2, 1-(3-chloro-4-fluorobenzyl)-1H-benzo[d]imidazol-2-amine]",30 to 100 µM
10,"NCCNc1nc2ccccc2n1Cc1ccc(Cl)cc1 [Example 12, N^1-(1-(4-chlorobenzyl)-1H-benzo[d]imidazol-2-yl)ethane-1,2-diamine trifluoroacetate]",5 to 30 µM
11,"Cc1ccc2nc([C@@H](N)Cc3ccc(O)cc3)n(Cc3ccc(F)cc3)c2c1 [Example 272, 4-[(2S)-2-amino-2-[1-[(4-fluorophenyl)methyl]-6-methylbenzimidazol-2-yl]ethyl]phenol]",30 to 100 µM
12,"Cc1cc(Cn2c(NCCN)nc3c(O)cccc32)ccc1F [Example 295, 2-((2-aminoethyl)amino)-1-(4-fluoro-3-methylbenzyl)-1H-benzo[d]imidazol-4-ol]",5 to 30 µM
13,"Cc1cc2nc(NC3CCNCC3)n(Cc3ccc(F)c(Cl)c3)c2cc1C [Example 269, 1-[(3-chloro-4-fluorophenyl)methyl]-5,6-dimethyl-N-piperidin-4-ylbenzimidazol-2-amine]",30 to 100 µM
14,"Cc1cc2nc(N3CCNCC3)n(Cc3cccc(C(F)(F)F)c3)c2cc1C [Example 32, 5,6-dimethyl-2-(piperazin-1-yl)-1-(3-(trifluoromethyl)benzyl)-1H-benzo[d]imidazole trifluoroacetate]",5 to 30 µM
15,"Cc1cc2c(cc1C)N(Cc1cccc(Br)c1)C1=NCCCN12 [Example 215, 10-(3-bromobenzyl)-7,8-dimethyl-2,3,4,10-tetrahydrobenzo[4,5]imidazo[1,2-a]pyrimidine]",5 to 30 µM
16,"Cc1cc2nc(NCCN(C)C)n(Cc3ccc(F)c(Cl)c3)c2cc1C [Example 28, N^1-(1-(3-chloro-4-fluorobenzyl)-5,6-dimethyl-1H-benzo[d]imidazol-2-yl)-N^2,N^2-dimethylethane-1,2-diamine trifluoroacetate]",1 to 5 µM
17,"Cc1cc(CN2CCCCC2)c2ncn(Cc3ccc(F)c(Cl)c3)c2c1 [Example 144, 1-(3-chloro-4-fluorobenzyl)-6-methyl-4-(piperidin-1-ylmethyl)-1H-benzo[d]imidazole trifluoroacetate]",30 to 100 µM
18,"Cc1cc2nc(NCCN3CCOCC3)n(Cc3ccc(F)c(Cl)c3)c2cc1C [Example 30, 1-(3-chloro-4-fluorobenzyl)-5,6-dimethyl-N-(2-morpholinoethyl)-1H-benzo[d]imidazol-2-amine trifluoroacetate]",5 to 30 µM
19,"Fc1cc(F)cc(Cn2c(C3CCNCC3)nc3ccccc32)c1 [Example 57, 1-(3,5-difluorobenzyl)-2-(piperidin-4-yl)-1H-benzo[d]imidazole trifluoroacetate]",5 to 30 µM
20,"Cc1cc2nc(N)n(Cc3ccc(F)cc3)c2cc1C [Example 3, 1-(4-fluorobenzyl)-5,6-dimethyl-1H-benzo[d]imidazol-2-amine]",30 to 100 µM
